Measurements published in patent publication US5866611A, “Therapeutic amines” (Zeneca Limited, priority 1993, dated 1999).
Counter-ions that a name gives are not always drawn.

Experiments:
[1] = tested on: Squalene synthase; test: Inhibition of Squalene synthase; format: biochemical; conditions: rat liver microsomal protein, 15 min, 37° C.
Protocol: (a) Inhibition of Squalene synthase
In this test, the ability of a compound to prevent the formation of squalene from a radioactive substrate (tritiated farnesyl pyrophosphate) is assessed.
The test compound is incubated at a concentration of 25 micromolar in 200 μl of a buffered solution containing potassium phosphate (50 mM), MgCl2 (4.95 mM), KF (9.9 mM), NADPH (0.9 mM) and rat liver microsomal protein (20 μg). Rat liver microsomes are prepared by the method described in published European Patent Application No. 324,421 and stored in liquid nitrogen prior to assay. Assay vials are kept at 37° C. throughout the incubation.
The reaction is started with the addition of the substrate (1-[^3 H]-farnesyl pyrophosphate), final concentration […], and stopped after 15 minutes reaction time with the addition of 50 μl of 4% KOH. The reaction products are separated from unreacted substrate after application to a C-18 octadecyl 1ccBond column (Analytichem Int product No. 617101). An aqueous fraction is eluted with 250 μl of 0.1M KOH. Squalene is then eluted with 1.0 ml 10% ethylacetate in hexane and radioactivity determined. The difference in radioactivity in the presence and absence of the test compound is used to determine the level of inhibition. […] The IC50 can then be determined from a plot of percentage inhibition against concentration of test compound.

[2] = tested on: de novo hepatic cholesterol synthesis; test: Acute rat cholesterol synthesis assay; conditions: acute in vivo, female rats, 14C-acetate ip, plasma cholesterol specific radioactivity, route for this compound not given
Protocol: (b) Acute rat cholesterol synthesis assay.
This is an acute in vivo test in the rat to measure de novo hepatic cholesterol synthesis from exogenously administered ^14 C-acetate.
Female rats (35-55 g) are housed in reverse lighting conditions (red light from 0200 h-1400 h) for a period of about 2 weeks prior to test. Animals are allowed free access to chow and drinking water throughout this period. At test, animals should weigh 125-150 g.
Test compounds may be administered by oral gavage, dissolved or suspended in 0.5% polysorbate, or by ip or iv dosing. Control animals receive vehicle alone. After 1 hour the rats are injected ip with 25 μCi [2-^14 C]-acetate (NEN DUPONT. specific activity, 45-60mCi/mmol NEC-085H, or AMERSHAN specific activity, 50-60 mCi/mmol CFA 14) in a volume of 0.25 ml saline (100 μCi/ml). After a further hour, rats are terminally anaesthetised with halothane and a blood sample obtained from the abdominal vena cava.
1ml of plasma is lyophilised and then saponified in 2ml ethanolic KOH (1 part 33% KOH, 9 parts ethanol) at […] for 2 hours. After addition of an equal quantity of water, non-saponifiable lipids are extracted with two 5ml volumes of hexane. The hexane extracts are evaporated to dryness and the residues dissolved in ethanol to determine cholesterol specific radioactivity. ED50 values can be determined in the standard way.

Structure (SMILES)	inhibition of squalene synthase ([1]; at a concentration of 25 μM)	inhibition of squalene synthase ([1]; at 2.5 μM)	ED50 [2] [mg/kg]
CCCCOc1ccc(OCCCNC(C)C)c(CCC)c1 [Example 2, N-isopropyl-3-(4-butoxy-2-propylphenoxy)propylamine]	about 74%	–	–
CCCc1cc(NC(C)=O)ccc1OCCCNC(C)C [Example 95, 3-n-propyl-4-(3-[N-isopropylamino]propoxy)-acetanilide hydrochloride]	–	about 86%	27
